The subject of the test is L-676 mouse embryo fibroblasts. As to the kind of experiment: Mouse L-Cell growth inhibition test. Type of test: cell-based. The following applies: 72 hours. As to the method:
L-676 mouse embryo fibroblasts were grown and maintained in liquid shake cultures of Swims-67G medium fortified by the addition of 5% fetal calf serum and supplemented with 1%, 200 millimolar glutamine.
Free drugs (without a carrier) used as controls were solubilized in either sterile distilled water or acetone and then added to the growth medium.
Drug containing HSA spherules were resuspended in growth medium. A sonifying water bath was employed to aid in suspension.
A 10% (v/v) inoculum of L-cells was employed in a final volume of 20 ml of growth medium containing suspended drug-containing microspheres or free control drug. […] All tests were performed in duplicate.

Structures are written as SMILES.

Regarding `Sc1ncnc2nc[nH]c12` [6-Mercaptopurine], the “% L-Cell Inhibition” value (50 micrograms drug/ml) came to 94%.
`Nc1nc2nc[nH]c2c(=S)[nH]1` [6-Thioguanine]: the “% L-Cell Inhibition” value runs as follows: (1 microgram drug/ml) 65%; (10 micrograms drug/ml) 88%; (50 micrograms drug/ml) 92%.
Take `CS(=O)(=O)OCCCCOS(C)(=O)=O` [Busulfan]: the “% L-Cell Inhibition” value (25.0 μg drug/ml) amounted to 69%.
In the case of `O=C(O)CCCc1ccc(N(CCCl)CCCl)cc1` [Chlorambucil], the “% L-Cell Inhibition” value (1 microgram drug/ml) was 0%, the “% L-Cell Inhibition” value (10 micrograms drug/ml) is 68% and the “% L-Cell Inhibition” value (50 micrograms drug/ml) is recorded as 97%.
For `COc1cc2c(c(OC)c1OC)-c1ccc(OC)c(=O)cc1[C@@H](NC(C)=O)CC2` [Colchicine], the “% L-Cell Inhibition” value reads like this: (1 microgram drug/ml) 91%; (10 micrograms drug/ml) 99%.
Take `CC(=O)OCC(=O)[C@@]1(O)CC[C@H]2[C@@H]3CCC4=CC(=O)CC[C@]4(C)[C@H]3[C@@H](O)C[C@@]21C` [Hydrocortisone Acetate]: the “% L-Cell Inhibition” value (1 microgram drug/ml) was 0%, the “% L-Cell Inhibition” value (10 micrograms drug/ml) worked out at 0%, the “% L-Cell Inhibition” value (50 micrograms drug/ml) is on record as 73% and the “% L-Cell Inhibition” value (100 micrograms drug/ml) turned out to be 88%.
With `NC(=O)NO` [Hydroxyurea], the “% L-Cell Inhibition” value is on record as 0% (1 microgram drug/ml) and 22% (10 micrograms drug/ml).
`O=c1[nH]cc(F)c(=O)[nH]1` [Pure 5-fluorouracil, 5-fluorouracil]: the “% L-Cell Inhibition” value by setting is: (1 microgram drug/ml) 67%; (10 micrograms drug/ml) 88%; (50 micrograms drug/ml) 93%; (100 micrograms drug/ml) 93%.
